From patent US7960419B2, “Substituted carboxamides” (Eli Lilly and Company, priority 2006, dated 2011)

Assays:
[1] = system: fasted male Harlan Sprague Dawley rats; experiment: Capsaicin model; type: in vivo, rat; conditions: fasted male HSD rats, at doses with no deficit in the rotorod test
Description: (§1) These well known pain models conveniently may be carried out as summarized below. […] All data are analyzed by ANOVA and Dunnett's t-test using JMPv4.1 (SAS Institute Inc., Cary, N.C.) statistical software unless otherwise indicated. Data are expressed as means±SEM. Specific conditions for each model are briefly described.
(§2) Formalin model: Drug is administered prior to formalin (50 μl, 5%), injected s.c. into the dorso-lateral surface of the right hindpaw. Paw-licking behavior is measured in an automated assay, as number of events, from 0-50 minutes after formalin. Data are expressed as paw-licking pain behavior events in early phase (0-5 minutes) or late phase (15-40 minutes). […] Two weeks later, mechanical allodynia behavior is measured using von Frey filaments using incremental bending forces (0.5-15 g) at various time points after drug administration. […] Thermal hyperalgesia is measured using a radiant heat source, with a 30 second cut off to prevent tissue damage. Paw withdrawal latency in seconds is measured as the difference between the inflammed paw and the non-inflammed left paw. […] Mechanical allodynia behavior is measured using von Frey filaments using incremental bending forces (0.5-15 g) at 15 minutes and 1 hour after capsaicin. […] Data are analyzed by ANOVA and Dunnett's t-test using JMPv4.1 (SAS Institute Inc., Cary, N.C.) statistical software. Data are expressed as means±SEM.

[2] = system: fasted male Harlan Sprague Dawley rats; experiment: Formalin model; type: in vivo, rat
Description: as §1
Formalin model: Drug is administered prior to formalin (50 μl, 5%), injected s.c. into the dorso-lateral surface of the right hindpaw. Paw-licking behavior is measured in an automated assay, as number of events, from 0-50 minutes after formalin. Data are expressed as paw-licking pain behavior events in early phase (0-5 minutes) or late phase (15-40 minutes). […] L5/L6 Spinal Nerve ligation model: Tight ligation is performed on L5 and L6 spinal nerves (one side only). Two weeks later, mechanical allodynia behavior is measured using von Frey filaments using incremental bending forces (0.5-15 g) at various time points after drug administration. Carrageenan model: Carrageenan (100 μl, 3%) is injected into the plantar surface of the right paw, and drug is administered two hours after carrageenan. Thermal hyperalgesia is measured using a radiant heat source, with a 30 second cut off to prevent tissue damage. Paw withdrawal latency in seconds is measured as the difference between the inflammed paw and the non-inflammed left paw. Capsaicin model: Drug is administered prior to capsaicin. Capsaicin (25 μl, 30 μg) in olive oil is injected into the plantar surface of the right paw. Mechanical allodynia behavior is measured using von Frey filaments using incremental bending forces (0.5-15 g) at 15 minutes and 1 hour after capsaicin. Tail Flick model: Radiant heat source at base of tail with 10 sec cut off is used to elicit tail flick response at various time points after drug administration. Rotorod test: Male Sprague Dawley rats (180-230 g, Harlan labs, Indianapolis) are used for the rotorod test. […] Data are analyzed by ANOVA and Dunnett's t-test using JMPv4.1 (SAS Institute Inc., Cary, N.C.) statistical software. Data are expressed as means±SEM.

non-fasted male HSD rats = experiment: L5/L6 Spinal Nerve ligation model; type: in vivo, rat; conditions: non-fasted male HSD rats (300-350 g), at doses with no deficit in the rotorod test
Description: as §1, §2

Male Sprague Dawley rats = experiment: Rotorod test; type: in vivo, rat; conditions: at the doses active in the pain models
Description: as §1, §2

[3] = target: T1, human recombinant mGlu1a receptor (Homo sapiens, UniProt Q13255); experiment: glutamate induced calcium flux (FLIPR, Fluo-3) in AV-12 cells expressing mGlu1a; type: cell-based; conditions: inhibition of peak fluorescence response to glutamate at EC90% (10 μM)
T1 construct: expressed in transfected cells
T1 sequence (Q13255 19-1194): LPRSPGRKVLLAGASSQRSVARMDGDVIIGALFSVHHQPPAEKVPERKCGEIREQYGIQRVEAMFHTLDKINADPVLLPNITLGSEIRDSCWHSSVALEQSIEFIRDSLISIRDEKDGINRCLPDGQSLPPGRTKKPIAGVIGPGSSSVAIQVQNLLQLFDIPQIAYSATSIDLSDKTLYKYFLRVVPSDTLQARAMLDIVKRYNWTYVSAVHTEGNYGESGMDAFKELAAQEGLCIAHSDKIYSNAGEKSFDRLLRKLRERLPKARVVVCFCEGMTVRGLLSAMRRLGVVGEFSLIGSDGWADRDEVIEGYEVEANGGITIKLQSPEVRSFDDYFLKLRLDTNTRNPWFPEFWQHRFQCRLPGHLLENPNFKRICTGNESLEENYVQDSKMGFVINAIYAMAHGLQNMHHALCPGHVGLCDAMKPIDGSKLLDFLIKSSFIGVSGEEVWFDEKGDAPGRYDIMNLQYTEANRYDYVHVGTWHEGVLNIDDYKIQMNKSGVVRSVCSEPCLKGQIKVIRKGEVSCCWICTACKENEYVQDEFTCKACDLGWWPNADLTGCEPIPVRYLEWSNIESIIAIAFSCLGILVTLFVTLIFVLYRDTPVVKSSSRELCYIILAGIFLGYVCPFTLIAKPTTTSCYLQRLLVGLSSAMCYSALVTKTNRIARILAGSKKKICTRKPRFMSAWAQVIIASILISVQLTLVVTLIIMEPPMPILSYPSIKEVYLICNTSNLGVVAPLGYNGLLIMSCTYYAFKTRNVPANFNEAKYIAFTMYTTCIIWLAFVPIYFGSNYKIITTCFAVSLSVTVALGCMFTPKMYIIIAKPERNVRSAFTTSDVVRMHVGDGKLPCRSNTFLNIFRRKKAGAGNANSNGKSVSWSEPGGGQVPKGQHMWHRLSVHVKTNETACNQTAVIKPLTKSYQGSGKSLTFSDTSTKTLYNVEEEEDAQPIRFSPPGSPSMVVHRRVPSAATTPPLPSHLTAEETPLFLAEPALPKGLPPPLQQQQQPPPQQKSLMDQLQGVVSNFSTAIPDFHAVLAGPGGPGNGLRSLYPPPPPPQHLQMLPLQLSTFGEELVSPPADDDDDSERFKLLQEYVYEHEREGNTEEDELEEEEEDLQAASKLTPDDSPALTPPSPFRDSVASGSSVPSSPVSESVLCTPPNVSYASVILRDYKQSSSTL
Description: The relative potency and selectivity of compounds of the instant invention for mGlu1 receptors is evaluated using stable clonal cell lines expressing recombinant mGlu1, 2, 3, 4. 5 or 8 receptors transfected into AV12 cell lines containing the rat EAAT1 glutamate transporter (RGT) cells.
For example, in more detail, compounds of the present invention are evaluated for effects on glutamate induced calcium flux responses using an AV-12 cell line expressing human recombinant mGlu1a receptor protein (see Kingston et al. Neuropharmacology. 37(1):1-12, 1998). mGlu1 receptor mediated responses are determined by changes in intracellular calcium concentrations measured by a fluorescent calcium sensitive dye Fluo-3. […] Unincorporated extracellular dye is removed from the wells by washing with buffer solution, and plates are then transferred to a 96-channel fluorimetric imaging plate reader (FLIPR-Molecular Devices Corporation, La Jolla, Calif., USA). Baseline fluorescence readings are undertaken for 10 sec prior to addition of test compounds by an automatic pipetting device integral to the FLIPR instrument. Following a 20 sec delay, glutamate is then added to the wells at an EC90% concentration (10 μM); and changes in fluorescence are monitored over 60 sec. […] IC50 values are calculated using a 4 parameter logistic curve fitting program (GraphPad Prism™ V4 or Activity Base™ V5.3 software).

[4] = system: fasted male Harlan Sprague Dawley rats; experiment: Tail Flick model; type: in vivo, rat; conditions: fasted male HSD rats, at doses with no deficit in the rotorod test
Description: as §1, §2

[5] = system: fasted male Harlan Sprague Dawley rats; experiment: Carrageenan model; type: in vivo, rat; conditions: fasted male HSD rats, at doses with no deficit in the rotorod test
Description: as §1, §2

[6] = in vivo; cited from earlier work
[7] = in vivo; cited from earlier work; remark: listed apart in the source

Row | performance in the rotorod test (Male Sprague Dawley rats) | IC50 [3] | Structure (SMILES) | activity in the capsaicin model [1] | activity in the formalin model ([2]; fasted male HSD rats, at doses with no deficit in the rotorod test) | late phase pain behavior (paw-licking, 15-40 minutes) ([2]; fasted rats, 3 to 60 mg/kg, p.o., 1 hour prior to formalin) | activity in the L5/L6 spinal nerve ligation model (non-fasted male HSD rats) | activity in the tail flick model [4] | activity in the carrageenan model [5] | late phase pain behavior (paw-licking, 15-40 minutes) ([2]; 1 to 30 mg/kg) | nocifensive responses in the formalin test [6] | mechanical allodynia in the L5/L6 spinal nerve ligation model [7]
1 | no deficit in performance | < 20 nM | COc1ccc(-c2nsc(NC(=O)[C@@H]3C[C@H]3C)c2C)cc1 [Example 1, (R,R)—N-[3-(4-methoxyphenyl)-4-methylisothiazol-5-yl]-2-methylcyclopropanecarboxamide] | dose-dependent activity | dose-dependent activity | dose dependent attenuation | dose-dependent activity | dose-dependent activity | dose-dependent activity | – | – | –
2 | – | < 20 nM | Cc1c(-c2ccc(Cl)cc2)nsc1NC(=O)[C@@H]1C[C@H]1C [Example 6, (R,R)—N-[3-(4-chlorophenyl)-4-methylisothiazol-5-yl]-2-methylcyclopropanecarboxamide] | – | – | – | – | – | – | dose dependent attenuation | – | –
3 | – | – | COc1ccc(Nc2ncnc3ccc(OC)cc23)cc1 [LY456236] | – | – | – | – | – | – | – | can reduce nocifensive responses | can reduce
